Results as given in patent publication US20180353501A1 (Arvinas, Inc., priority 2017, published 2018).
Read-outs that look alike come from different tables or passages of the source.

Experiment: Pharmacokinetics of intraperitoneal or intravenous injection in CD1 mice (plasma, LC/MS/MS)
Type: in vivo
Details: for concentration at 0.25 h / concentration at 0.5 h / concentration at 1 h / concentration at 2 h / concentration at 4 h / concentration at 8 h / concentration at 24 h / concentration at 0.033 h / concentration at 0.083 h: male, CD1, mouse, plasma
Experimental: Pharmacokinetics of Intraperitoneal or Intravenous Injection of Example 1 or Example 2.
The pharmacokinetics of Example 1 and 2 was examined for intraperitoneal and intravenous administration. The desired serial concentrations of working solutions were achieved by diluting stock solution (1 mg/mL in DMSO) of analyte with methanol. In particular, 20 μL of working solutions (1, 2, 5, 10, 50, 100, 500, 1000, 2000 ng/mL) were added to 20 μL of the blank CD1 mice plasma to achieve calibration standards of 1-2000 ng/mL (1, 2, 5, 10, 50, 100, 500, 1000, 2000 ng/mL) in a total volume of 40 pt. Dose of IV and IP were diluted by 1000 fold and 10000 with methanol, 20 μL of the diluted dose solutions were added to 20 μL of the blank CD1 mice plasma to achieve dose samples. Next, 40 μL standards and 40 μL dose samples were added to 20 μL of assay Internal Standard (100 ng/mL) and 200 μL of acetonitrile for precipitating protein respectively. Then the samples were vortexed for 30 seconds. After centrifugation at 4 degree Celsius, 4000 rpm for 15 min, the supernatant was diluted 3 times with water. Then, 10 μL of the diluted supernatant was injected into the LC/MS/MS system for quantitative analysis.
Examples 1 and 2 were administered intravenously (5 second injection of 10% HP-b-CD and 40 mM sodium acetate and 40 mM NaCl in water, pH4.5) or intraperitoneally (5% EtOH and 5% Solutol HS15 in D5W(ESD-2)) to 6-8 week old male CD1 mice (3 mice per treatment group for a total of 12 mice) at the time points indicated below in Table 3. The mice had free access to food and water.
Dorsal metatarsal vein samples (30 μL), except that the final sample was acquired via a heart puncture, were taken from the mice at the same the administration time points as shown in Table 2.
The data for Example 1 is shown below in FIG. 5 and Tables 5 (FIG. 6), 6 and 7. The data for Example 2 is shown in FIG. 7 and Tables 8 (FIG. 8), 9, and 10.

[1] = ip, 10 mg/kg, IP 10 mg/kg, read-out: Conc. Mean
[2] = ip, 10 mg/kg, IP 10 mg/kg, read-out: Conc. Mouse 1
[3] = ip, 10 mg/kg, IP 10 mg/kg, read-out: Conc. Mouse 2
[4] = ip, 10 mg/kg, IP 10 mg/kg, read-out: Conc. Mouse 3
[5] = iv, 1 mg/kg, IV 1.0 mg/kg, read-out: Conc. Mean
[6] = iv, 1 mg/kg, IV 1.0 mg/kg, read-out: Conc. Mouse 1
[7] = iv, 1 mg/kg, IV 1.0 mg/kg, read-out: Conc. Mouse 2
[8] = iv, 1 mg/kg, IV 1.0 mg/kg, read-out: Conc. Mouse 3

Conc. Mouse 1 (IV 1.0 mg/kg, 24 h): BLOQ
Conc. Mouse 2 (IV 1.0 mg/kg, 24 h): BLOQ
concentration at 0.25 h [1]: 2200 ng/mL
concentration at 0.25 h [2]: 3420 ng/mL
concentration at 0.25 h [3]: 2180 ng/mL
concentration at 0.25 h [4]: 990 ng/mL
concentration at 0.5 h [1]: 3310 ng/mL
concentration at 0.5 h [2]: 5210 ng/mL
concentration at 0.5 h [3]: 2500 ng/mL
concentration at 0.5 h [4]: 2210 ng/mL
concentration at 1 h [1]: 5530 ng/mL
concentration at 1 h [2]: 4470 ng/mL
concentration at 1 h [3]: 9060 ng/mL
concentration at 1 h [4]: 3050 ng/mL
concentration at 2 h [1]: 7500 ng/mL
concentration at 2 h [2]: 5740 ng/mL
concentration at 2 h [3]: 6210 ng/mL
concentration at 2 h [4]: 10500 ng/mL
concentration at 4 h [1]: 4520 ng/mL
concentration at 4 h [2]: 6340 ng/mL
concentration at 4 h [3]: 3740 ng/mL
concentration at 4 h [4]: 3460 ng/mL
concentration at 8 h [1]: 411 ng/mL
concentration at 8 h [2]: 476 ng/mL
concentration at 8 h [3]: 329 ng/mL
concentration at 8 h [4]: 429 ng/mL
concentration at 24 h (ip, 10 mg/kg, IP 10 mg/kg, 24 h, read-out: Conc. Mean): 12.3 ng/mL
concentration at 24 h (ip, 10 mg/kg, IP 10 mg/kg, 24 h, read-out: Conc. Mouse 1): 12.2 ng/mL
concentration at 24 h (ip, 10 mg/kg, IP 10 mg/kg, 24 h, read-out: Conc. Mouse 2): 9.43 ng/mL
concentration at 24 h (ip, 10 mg/kg, IP 10 mg/kg, 24 h, read-out: Conc. Mouse 3): 15.1 ng/mL
concentration at 0.033 h [5]: 2350 ng/mL
concentration at 0.033 h [6]: 2050 ng/mL
concentration at 0.033 h [7]: 2820 ng/mL
concentration at 0.033 h [8]: 2190 ng/mL
concentration at 0.083 h [5]: 1530 ng/mL
concentration at 0.083 h [6]: 1200 ng/mL
concentration at 0.083 h [7]: 1810 ng/mL
concentration at 0.083 h [8]: 1590 ng/mL
concentration at 0.25 h [5]: 691 ng/mL
concentration at 0.25 h [6]: 491 ng/mL
concentration at 0.25 h [7]: 991 ng/mL
concentration at 0.25 h [8]: 590 ng/mL
concentration at 0.5 h [5]: 397 ng/mL
concentration at 0.5 h [6]: 280 ng/mL
concentration at 0.5 h [7]: 497 ng/mL
concentration at 0.5 h [8]: 413 ng/mL
concentration at 1 h [5]: 143 ng/mL
concentration at 1 h [6]: 142 ng/mL
concentration at 1 h [7]: 135 ng/mL
concentration at 1 h [8]: 153 ng/mL
concentration at 2 h [5]: 70.3 ng/mL
concentration at 2 h [6]: 55.5 ng/mL
concentration at 2 h [7]: 92.9 ng/mL
concentration at 2 h [8]: 62.3 ng/mL
concentration at 4 h [5]: 15.4 ng/mL
concentration at 4 h [6]: 16.8 ng/mL
concentration at 4 h [7]: 15.4 ng/mL
concentration at 4 h [8]: 13.9 ng/mL
concentration at 8 h [5]: 8.6 ng/mL
concentration at 8 h [6]: 10.1 ng/mL
concentration at 8 h [7]: 10.6 ng/mL
concentration at 8 h [8]: 5.2 ng/mL
concentration at 24 h (iv, 1 mg/kg, IV 1.0 mg/kg, 24 h, read-out: Conc. Mouse 3): 0.971 ng/mL
SMILES: COc1cc2c(Oc3ccc(NC(=O)C4(C(=O)Nc5ccc(F)cc5)CC4)cc3F)ccnc2cc1OCCCOCCCOCCC(=O)N[C@H](C(=O)N1C[C@H](O)C[C@H]1C(=O)NCc1ccc(-c2scnc2C)cc1)C(C)(C)C [Example 1]
